From PubChem BioAssay (NCI) come the findings set out here.

Some test systems named below: DU-145 prostate; HCT-15 colon; HOP-62 NSCLC; NCI-H226 lung; RXF 393 renal; SF-295 CNS; SK-MEL-2 melanoma; SN12C renal; SW-620 colon; EKVX NSCLC.
Common to all, as to experiment: NCI anticancer screen, dose series, 48 h

Several values for one entry are separate records, joined by “and”; a condition that tells them apart may be missing. Equal entries are not always repeated.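 Test compounds were applied to cells in 96-well plates for 48 hours at 5 doses. GI50: concentration for 50% inhibition of growth. The concentration for full growth arrest is given as TGI.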

On to `C[C@]12CC[C@@H]3c4ccc(O)cc4CC[C@H]3[C@@H]1CC[C@@H]2NS(=O)(=O)c1ccc2ccccc2c1`, for which the GI50 was 4.14 µM in the assay with DU-145 prostate; 2.89 µM in the assay on HCT-15 colon; 5.87 µM in the assay with HOP-62 NSCLC; 2.98 µM with NCI-H226 lung; 1.84 µM in the assay with RXF 393 renal; 2.25 µM in the assay with SF-295 CNS. The GI50 is 2.75 µM with SK-MEL-2 melanoma, 1.94 µM in the assay on SN12C renal and 3.4 µM in the assay on SW-620 colon. Besides, the TGI in the assay with DU-145 prostate was 17.5 µM; with HCT-15 colon it was 10.5 µM; in the assay on HOP-62 NSCLC, 20.2 µM; in the assay on NCI-H226 lung, 11.5 µM; with RXF 393 renal it was 4.33 µM; with SF-295 CNS it was 6.03 µM. For the same molecule, the TGI was determined as 7.94 µM in the assay with SK-MEL-2 melanoma, 4.25 µM in the assay with SN12C renal and 15.7 µM in the assay with SW-620 colon.

As for `CC(=O)NC1=C(Sc2ccc(Cl)cc2)C(=O)c2ccccc2C1=O`, the TGI is 30.5 µM in the assay with DU-145 prostate; 18.9 µM with EKVX NSCLC; 19.1 µM with HCT-15 colon; 24.2 µM with NCI-H226 lung; 4.65 µM in the assay with RXF 393 renal; 20.9 µM in the assay on SF-295 CNS. Besides, the TGI with SK-MEL-2 melanoma is 16 µM; in the assay with SN12C renal, 16.2 µM; in the assay on SW-620 colon, 4.01 µM.

Regarding `CCN(CC)c1ccc(/C=C/C=C(/C#N)C(N)=S)cc1`, the GI50 in the assay with DU-145 prostate was 3.88 µM; with EKVX NSCLC, 6.5 µM; with HCT-15 colon it was 2.59 µM; in the assay with HOP-62 NSCLC, 5.37 µM; in the assay on NCI-H226 lung it was 5.27 µM; in the assay on SF-295 CNS, 27.6 µM. In addition, the values for the GI50 with SK-MEL-2 melanoma, in the assay with SN12C renal and in the assay on SW-620 colon were 20.9 µM, 7.56 µM and 15.4 µM, respectively. Further, the TGI in the assay with DU-145 prostate is above 100 µM; in the assay on EKVX NSCLC, above 100 µM; in the assay on HCT-15 colon, above 100 µM; in the assay on HOP-62 NSCLC, 32.3 µM; in the assay on NCI-H226 lung, 30.9 µM; in the assay on SF-295 CNS, above 100 µM. Also, the TGI is above 100 µM in the assay on SK-MEL-2 melanoma, 75.2 µM in the assay with SN12C renal and above 100 µM in the assay on SW-620 colon.

`CCN(Cc1cccc(F)c1F)c1ccc(CO)c(Cl)c1`: the GI50 with DU-145 prostate is 18.8 µM; in the assay with HCT-15 colon it was 12.4 µM; in the assay with HOP-62 NSCLC it was 1.82 µM; with NCI-H226 lung it was 0.0318 µM; in the assay on RXF 393 renal it was 1.89 µM; in the assay on SF-295 CNS, 0.284 µM. The results for the GI50 in the assay on SK-MEL-2 melanoma, in the assay on SN12C renal and in the assay on SW-620 colon were 4.68 µM, 13.4 µM and 0.554 µM, respectively. Besides, the TGI with DU-145 prostate came out at 55.6 µM; in the assay with HCT-15 colon, 36.2 µM; with HOP-62 NSCLC, 24.6 µM; in the assay on NCI-H226 lung, 0.141 µM; in the assay on RXF 393 renal it was 14.9 µM; with SF-295 CNS, 25 µM. The values for the TGI in the assay on SK-MEL-2 melanoma, in the assay with SN12C renal and in the assay on SW-620 colon were 22.6 µM, 30.2 µM and 18.1 µM, respectively.

Turning to `COc1ccc(/C(=N/O)c2cc(OC)c(OC)c(OC)c2)c(OC)c1N`, the GI50 in the assay on DU-145 prostate was 4.67 µM; in the assay with EKVX NSCLC it was 6.64 µM; in the assay on HCT-15 colon, 3.87 µM; in the assay with HOP-62 NSCLC, 6.55 µM; with NCI-H226 lung it was above 100 µM; in the assay on SF-295 CNS, 3.02 µM. Moreover, the GI50 in the assay with SK-MEL-2 melanoma is above 100 µM; in the assay with SN12C renal it was 15.4 µM; in the assay with SW-620 colon, 4.42 µM. Moreover, the TGI with DU-145 prostate, in the assay with EKVX NSCLC, in the assay with HCT-15 colon, with HOP-62 NSCLC, in the assay on NCI-H226 lung and in the assay on SF-295 CNS was above 100 µM in each case. Besides, the TGI in the assay with SK-MEL-2 melanoma, with SN12C renal and with SW-620 colon was above 100 µM each time.

As for `COc1cc(NC(C)CCCN)c2ncccc2c1Sc1ccc(Cl)cc1` (configuration not stated), the GI50 in the assay with DU-145 prostate was 1.85 µM; in the assay with EKVX NSCLC, 2.14 µM; with HCT-15 colon it was 1.89 µM; in the assay on HOP-62 NSCLC, 1.75 µM; in the assay on RXF 393 renal, 1.7 µM; with SF-295 CNS, 2.01 µM. The GI50 in the assay with SK-MEL-2 melanoma is 1.85 µM; with SN12C renal, 1.62 µM; in the assay on SW-620 colon it was 1.61 µM. For the same molecule, the TGI came to 3.32 µM with DU-145 prostate; 4.72 µM in the assay with EKVX NSCLC; 3.67 µM in the assay with HCT-15 colon; 3.29 µM with HOP-62 NSCLC; 3.07 µM in the assay with RXF 393 renal; 4.06 µM with SF-295 CNS. The TGI amounted to 3.4 µM in the assay with SK-MEL-2 melanoma, 3.06 µM in the assay with SN12C renal and 3.08 µM in the assay on SW-620 colon.

With `CSc1nc(N)c2c(n1)NC(c1ccccc1)C1CCc3ccccc3C1=N2` (configuration not stated), the GI50 in the assay with DU-145 prostate is above 100 µM; in the assay with EKVX NSCLC, 7 µM; with HCT-15 colon, 7.61 µM; in the assay with HOP-62 NSCLC, above 100 µM; with NCI-H226 lung it was 42.3 µM; in the assay with RXF 393 renal, 4.71 µM. Also, the GI50 is 25.6 µM in the assay on SF-295 CNS, 4.13 µM with SK-MEL-2 melanoma and 30.9 µM in the assay with SN12C renal. Besides, the TGI with DU-145 prostate, with EKVX NSCLC, with HCT-15 colon, in the assay with HOP-62 NSCLC, with NCI-H226 lung and with RXF 393 renal was above 100 µM each time. Moreover, the figures for the TGI in the assay with SF-295 CNS, in the assay with SK-MEL-2 melanoma and in the assay with SN12C renal were above 100 µM, 8.54 µM and above 100 µM, respectively.

`O=C(Nc1cccc(-n2cc(-c3ccncc3)c(-c3ccc(O)c(Cl)c3)n2)c1)c1ccc(Cl)c(Cl)c1`: the GI50 in the assay on DU-145 prostate is 20.9 µM; with HCT-15 colon, 3.2 µM; in the assay on HOP-62 NSCLC, 20.3 µM; with NCI-H226 lung, 8.06 µM; in the assay on SF-295 CNS, 5.94 µM; in the assay on SK-MEL-2 melanoma, 11.6 µM. In addition, the values for the GI50 in the assay on SN12C renal and in the assay on SW-620 colon were 23.1 µM and 3.89 µM, respectively. Besides, the TGI with DU-145 prostate is above 100 µM; in the assay on HCT-15 colon, above 100 µM; in the assay on HOP-62 NSCLC, above 100 µM; in the assay on NCI-H226 lung it was above 100 µM; in the assay with SF-295 CNS, 86.5 µM; with SK-MEL-2 melanoma, 38.6 µM. For the same molecule, the TGI in the assay with SN12C renal and in the assay on SW-620 colon was above 100 µM throughout.

Regarding `O=C1N[C@H]2[C@H](O)[C@H](O)[C@@H](O)[C@H](O)[C@@H]2c2cc3c(c(O)c21)OCO3`, the GI50 in the assay with DU-145 prostate was 0.0101 µM; in the assay with HCT-15 colon, 0.462 µM; in the assay on HOP-62 NSCLC, 0.246 µM and 0.0935 µM; in the assay with NCI-H226 lung it was 0.273 µM and 0.365 µM; in the assay with RXF 393 renal it was 0.148 µM and 0.423 µM; with SF-295 CNS, 0.346 µM and 0.495 µM. The GI50 in the assay on SK-MEL-2 melanoma was 0.266 µM; in the assay with SN12C renal it was 0.206 µM and 0.246 µM; with SW-620 colon, 0.239 µM and 0.25 µM. In addition, the TGI in the assay with DU-145 prostate is 0.0963 µM and 0.102 µM; in the assay on HOP-62 NSCLC it was 0.93 µM and 0.532 µM and 0.182 µM; in the assay on NCI-H226 lung, 1.59 µM and 0.195 µM; in the assay with SF-295 CNS it was 3.51 µM and 0.352 µM; in the assay on SN12C renal, 2.11 µM and 0.28 µM.
